Our source for the Ki and EC50 values is US7919508B2, “3-piperidinylisochroman-5-ols as dopamine agonists” (Aventis Pharmaceuticals Inc., priority 2004, dated 2011).

For test [1], the target named is human dopamine D2Long (D2L) receptors (Homo sapiens, UniProt P14416).
Method: [N-Methyl-^3H]Spiroperidol Binding to Cloned Human Dopamine D2Long Receptors
This assay measures the in vitro activity of drugs on cloned human dopamine D2Long (D2L) receptors and predicts the direct dopamine-displacing properties of neuropsychiatric, cardiovascular and renal agents at human dopamine D2 receptors.
Cells were maintained in Ham's F12+10% Fetal Bovine Serum+Penicillin/Streptomycin (100 U/ml/100 μg/ml)+G418 (400 μg/ml) medium and were split using Trypsin-EDTA (1 ml/plate, room temperature for ˜2 min. or until cells have lifted off plates). • 2. […] Plates are incubated at 37° C.+5% CO2 for ˜3 days or until cells were confluent.
Cells are harvested by mechanical scraping, washed using PBS collected in 250 ml Corning polypropylene centrifuge tubes, spun down and resuspended in dH2O (final volume per harvest approximately 60 ml). Protein determination is made according to the method of Lowry (Biorad DC Assay Kit). Following the determination of the protein concentration, the protein is diluted into distilled water with 10% DMSO to the appropriate volume based on expression levels (Bmax). The concentrated protein is aliquoted into 1.5 ml screw top eppendorf tubes and placed into a −80° C. freezer.
Assay Requirement: 1 cryovial per two 96 well plates
0.5M Tris Wash Buffer, pH 7.7 • a) 44.4 g Tris HCl • 26.5 g Tris Base • q.s. to 1 Liter (0.5 M Tris buffer, pH 7.7 at 37° C.) • b) make a 1:10 dilution in distilled H2O (0.05 M. Tris buffer, pH 7.7) • 2. Tris Buffer containing physiological salts • a) Stock buffer • NaCl 7.014 g • KCl 0.372 g • CaCl2 0.222 g • MgCl2 0.204 g • q.s. To 100 ml with 0.5 M. Tris Buffer • b) Dilute 1:10 in distilled H2O • This yields 0.05 M. Tris HCl, pH 7.7, containing NaCl (120 mM), KCl (5 mM), CaCl2 (2 mM) and MgCl2 (1 mM) • Optional: add 0.1% ascorbic acid and check pH (in assays with compounds that may oxidize. • c) 1.0% polyethyleneimine stock in 0.5M Tris (reagent 1.a) • Dilute 1:10 in distilled H2O Binding Assay • 750 μl Tissue • 150 μl [^3H]NMSP • 100 μl vehicle (for total binding) or 30 μM (−)
eticlopride (for nonspecific binding) or appropriate drug concentration.
The 96-Well Packard Unifilters GF/B are incubated for >1 h at 25° C. in 0.1% polyethylenimine. The cold tissue is added last and mixed on a orbital shaker for a few seconds and is then incubated at 37° C. for 30 min in a shaking water bath. The assay is stopped by rapid filtration through Packard Unifilter plates. The filter membranes are then washed with 15 ml of ice-cold 0.05 M Tris buffer. The filters are then dried (˜15 min. under a heat lamp or incubated for 15 min. in a 60° C. oven) and a bottom seal is applied. Then 40 μl of Packard Microscint 20 scintillation cocktail are added and a permanent topseal (Type P) is applied and heat sealed. The plates are placed in a Packard Topcount.
Specific binding is defined as the difference between total binding and the binding in the presence of 3 μM S-(−)-eticlopride. Total binding is approximately 10% of the total added ligand. […] The percent inhibition at each drug concentration is the mean of duplicate determinations.
Test [2] concerns the target T1, human dopamine D1 receptor (Homo sapiens, UniProt P21728).
T1 construct: A 1.4 Kb Hind III to Xho I fragment was subcloned into the vector pMMLV; expressed in transfected cells; host or cells: CHO cells, clone CHO-D1M#9 (plasmid pHD1MMLV), membranes
The experiment in a line: [3H]-SCH-23390 binding to cloned human dopamine D1 receptors (CHO cell membranes). As to conditions: competitive binding, [3H]-SCH-23390, cloned human D1 in CHO membranes; read-out: D1 affinity Ki.

The target in another test is T2, D1 receptor (Homo sapiens, UniProt P21728).
T2 construct: expressed in transfected cells; host or cells: D1 transfected CHO cell line
The experiment in a line: D1 Activation Adenylyl Cyclase Assay (cAMP FlashPlate, D1 transfected CHO cell line). As to conditions: agonist activity at the D1 receptor, adenylate cyclase assay, D1 transfected CHO cell line; read-out: D1 EC50. It is filed as cell-based. In outline:
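D1-transfected CHO cells (50,000/well) were exposed to compound 1/10 serial dilutions for 8 min at RT; cAMP measured by competitive 125I-cAMP FlashPlate against a standard curve. Response normalised between basal and saturating D1 agonist; EC50 at half-maximal stimulation, plateau reported as % maximal dopamine stimulation.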

Structures can show the parent of a compound that is named as a salt.

Chain of human dopamine D2Long (D2L) receptors (P14416 whole entry): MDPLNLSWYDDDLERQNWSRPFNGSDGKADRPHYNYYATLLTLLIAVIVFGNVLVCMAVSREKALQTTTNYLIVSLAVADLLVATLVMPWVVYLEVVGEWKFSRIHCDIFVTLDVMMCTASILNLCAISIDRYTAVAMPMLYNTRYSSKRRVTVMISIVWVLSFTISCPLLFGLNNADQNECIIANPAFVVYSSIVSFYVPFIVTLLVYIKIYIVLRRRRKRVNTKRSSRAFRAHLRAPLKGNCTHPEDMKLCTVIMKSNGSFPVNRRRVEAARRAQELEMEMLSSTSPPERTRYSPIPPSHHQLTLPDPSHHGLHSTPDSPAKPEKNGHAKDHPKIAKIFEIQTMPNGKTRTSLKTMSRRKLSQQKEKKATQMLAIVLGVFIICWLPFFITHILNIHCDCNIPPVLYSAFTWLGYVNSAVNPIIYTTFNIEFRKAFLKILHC
T1 sequence (P21728 whole entry, the tested form may be a part): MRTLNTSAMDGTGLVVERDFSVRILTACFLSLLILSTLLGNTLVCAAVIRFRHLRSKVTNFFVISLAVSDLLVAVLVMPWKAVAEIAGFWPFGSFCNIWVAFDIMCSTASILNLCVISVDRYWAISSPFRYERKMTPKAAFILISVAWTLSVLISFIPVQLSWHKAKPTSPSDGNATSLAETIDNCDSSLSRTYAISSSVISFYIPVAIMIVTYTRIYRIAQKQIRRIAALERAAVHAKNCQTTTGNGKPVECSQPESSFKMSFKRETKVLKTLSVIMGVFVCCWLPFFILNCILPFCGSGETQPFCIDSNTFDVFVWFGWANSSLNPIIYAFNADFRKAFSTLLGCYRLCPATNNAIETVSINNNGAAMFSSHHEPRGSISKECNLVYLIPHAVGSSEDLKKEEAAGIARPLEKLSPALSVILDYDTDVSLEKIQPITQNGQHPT
T2 sequence (P21728 whole entry): as the sequence (P21728 whole entry, the tested form may be a part) above

On to `CCCCN(CCCC)C(=O)N1CCC([C@@H]2Cc3c(ccc(C)c3O)[C@H](CN)O2)CC1` [Example 139, 4-((1R,3S)-1-Aminomethyl-5-hydroxy-6-methyl-isochroman-3-yl)-piperidine-1-carboxylic acid dibutylamide hydrochloride], for which the Ki in test [1] came out at 204 nM; in test [2] it was 137 nM. Besides, the 50% effective concentration (EC50) at D1 receptor came out at 0.11 nM.
Regarding `Cc1ccc2c(c1O)C[C@@H](C1CCN(S(=O)(=O)Cc3ccccc3)CC1)O[C@H]2CN` [Example 142, (1R,3S)-1-Aminomethyl-6-methyl-3-(1-phenylmethanesulfonyl-piperidin-4-yl)-isochroman-5-ol hydrochloride], the values for the inhibition constant (Ki) in test [1] and in test [2] were no less than 100000 nM and 18 nM, respectively. Besides, the EC50 at D1 receptor was found to be 1.9 nM.
Take `COc1ccc(S(=O)(=O)N2CCC([C@@H]3Cc4c(ccc(C)c4O)[C@H](CN)O3)CC2)cc1OC` [Example 144, (1R,3S)-1-Aminomethyl-3-[1-(3,4-dimethoxy-benzenesulfonyl)-piperidin-4-yl]-6-methyl-isochroman-5-ol hydrochloride]: the Ki in test [1] turned out to be 602 nM; in test [2], 91 nM. At D1 receptor, the EC50 stood at 3.6 nM.
On to `Cc1ccc2c(c1O)C[C@@H](C1CCN(S(=O)(=O)c3ccc(C(C)(C)C)cc3)CC1)O[C@H]2CN` [Example 146, (1R,3S)-1-Aminomethyl-3-[1-(4-tert-butyl-benzenesulfonyl)-piperidin-4-yl]-6-methyl-isochroman-5-ol hydrochloride], for which the Ki in test [1] came to 531 nM; in test [2], 89 nM. In addition, the EC50 at D1 receptor is 79 nM.
In the same order, the values of `Cc1ccc2c(c1O)C[C@@H](C1CCN(S(=O)(=O)c3ccc4ccccc4c3)CC1)O[C@H]2CN` [Example 147, (1R 3S)-1-Aminomethyl-6-methyl-3-[1-(naphthalene-2-sulfonyl)-piperidin-4-yl]-isochroman-5-ol hydrochloride] are 623 nM, 108 nM and 394 nM.
As to `Cc1ccc2c(c1O)C[C@@H](C1CCN(S(=O)(=O)c3cc(Cl)ccc3Cl)CC1)O[C@H]2CN` [Example 151, (1R,3S)-1-Aminomethyl-3-[1-(2,5-dichloro-benzenesulfonyl)-piperidin-4-yl]-6-methyl-isochroman-5-ol hydrochloride], the Ki in test [1] is no less than 100000 nM; in test [2] it was 82 nM. In addition, the EC50 at D1 receptor was 58 nM.
The like results for `Cc1ccc2c(c1O)C[C@@H](C1CCN(S(=O)(=O)CC(F)(F)F)CC1)O[C@H]2CN` [Example 157, (1R,3S)-1-Aminomethyl-6-methyl-3-[1-(2,2,2-trifluoro-ethanesulfonyl)-piperidin-4-yl]-isochroman-5-ol hydrochloride] were, in that order, 434 nM, 2.07 nM and 460 nM.
In the case of `Cc1ccc2c(c1O)C[C@@H](C1CCN(S(=O)(=O)Cc3ccccc3[N+](=O)[O-])CC1)O[C@H]2CN` [Example 158, (1R,3S)-1-Aminomethyl-6-methyl-3-[1-(2-nitro-phenylmethanesulfonyl)-piperidin-4-yl]-isochroman-5-ol hydrochloride], the Ki in test [1] was no less than 100000 nM; in test [2], 95.2 nM. Further, the EC50 on D1 receptor came to 11 nM.
For `Cc1ccc2c(c1O)C[C@@H](C1CCN(S(=O)(=O)CCc3cccc4ccccc34)CC1)O[C@H]2CN` [Example 159, (1R,3S)-1-Aminomethyl-6-methyl-3-[1-(2-naphthalen-1-yl-ethanesulfonyl)-piperidin-4-yl]-isochroman-5-ol hydrochloride], the Ki is no less than 100000 nM in test [1] and 64.5 nM in test [2]. For the same compound, the EC50 on D1 receptor was 35 nM.
Turning to `Cc1ccc2c(c1O)C[C@@H](C1CCN(S(=O)(=O)N3CCc4ccccc4C3)CC1)O[C@H]2CN` [Example 167, (1R,3S)-1-Aminomethyl-3-[1-(3,4-dihydro-1H-isoquinoline-2-sulfonyl)-piperidin-yl]-6-methyl-isochroman-5-ol hydrochloride], the inhibition constant Ki in test [1] worked out at 528 nM; in test [2], 74 nM. Besides, the EC50 at D1 receptor stood at 77 nM.
Regarding `CCNC[C@@H]1O[C@H](C2CCN(CC(=O)c3ccccc3)CC2)Cc2c1ccc(C)c2O` [Example 179, 2-[4-((1R,3S)-1-Ethylaminomethyl-5-hydroxy-6-methyl-isochroman-3-yl)-piperidin-1-yl]-1-phenyl-ethanone], the figures for the Ki in test [1] and in test [2] were 215 nM and 139 nM, respectively. The EC50 at D1 receptor is 810 nM.
With `Cc1ccc2c(c1O)C[C@@H](C1CCN(CCNC(=O)c3ccc(F)cc3)CC1)O[C@H]2CN` [Example 189, N-{2-[4-((1R,3S)-1-Aminomethyl-5-hydroxy-6-methylisochroman-3-yl)-piperidin-1-yl]ethyl}-4-fluorobenzamide dihydrobromide], the results for the Ki in test [1] and in test [2] were 61 nM and 312 nM, respectively. Further, the concentration for a half-maximal effect (EC50) on D1 receptor was 270 nM.
On to `Cc1ccc2c(c1O)C[C@@H](C1CCN(CCNC(=O)c3ccccc3)CC1)O[C@H]2CN` [Example 191, N-{2-[4-((1R,3S)-1-Aminomethyl-5-hydroxy-6-methylisochroman-3-yl)-piperidin-1-yl]-ethyl}benzamide dihydrobromide], for which the Ki was 415 nM in test [1] and 276 nM in test [2]. The EC50 on D1 receptor worked out at 180 nM.
Regarding `Cc1ccc2c(c1O)C[C@@H](C1CCN(CCNC(=O)Nc3ccc(F)cc3)CC1)O[C@H]2CN` [Example 192, (1R,3S)-1-{2-[4-(1-Aminomethyl-5-hydroxy-6-methyl-isochroman-3-yl)-piperidin-1-yl]ethyl}-3-(4-fluoro-phenyl)urea dihydrobromide], the inhibition constant (Ki) turned out to be 477 nM in test [1] and 77 nM in test [2]. Further, the EC50 at D1 receptor is 11 nM.
For the compound `Cc1ccc2c(c1O)C[C@@H](C1CCN(CCNC(=O)Nc3ccccc3)CC1)O[C@H]2CN` [Example 193, 1-{2-[4-((1R,3S)-1-Aminomethyl-5-hydroxy-6-methyl-isochroman-3-yl)piperidin-1-yl]-ethyl}-3-phenylurea dihydrobromide], the values for the Ki in test [1] and in test [2] were 284 nM and 50 nM, respectively. Further, at D1 receptor, the 50% effective concentration (EC50) was 43 nM.
On to `CCC(CN1CCC([C@@H]2Cc3c(ccc(C)c3O)[C@H](CNC)O2)CC1)c1ccccc1` (stereo partly drawn) [Example 194, (1R,3S)-6-Methyl-1-methylaminomethyl-3-[1-(2-phenylbutyl)-piperidin-4-yl]isochroman-5-ol dihydrochloride], for which the Ki in test [1] turned out to be 639 nM; in test [2], 54 nM. Besides, the EC50 on D1 receptor was found to be 34 nM.

Broadly, the Ki is a dissociation constant, usually derived from enzyme kinetics or from competition with a known ligand. One may read the EC50 as the concentration that produces a half-maximal response.
